Assay [1] addresses T1, human mAChRM1 (Homo sapiens, UniProt P11229).
T1 construct: host or cells: CHO-K1
T1 sequence (P11229 1-460): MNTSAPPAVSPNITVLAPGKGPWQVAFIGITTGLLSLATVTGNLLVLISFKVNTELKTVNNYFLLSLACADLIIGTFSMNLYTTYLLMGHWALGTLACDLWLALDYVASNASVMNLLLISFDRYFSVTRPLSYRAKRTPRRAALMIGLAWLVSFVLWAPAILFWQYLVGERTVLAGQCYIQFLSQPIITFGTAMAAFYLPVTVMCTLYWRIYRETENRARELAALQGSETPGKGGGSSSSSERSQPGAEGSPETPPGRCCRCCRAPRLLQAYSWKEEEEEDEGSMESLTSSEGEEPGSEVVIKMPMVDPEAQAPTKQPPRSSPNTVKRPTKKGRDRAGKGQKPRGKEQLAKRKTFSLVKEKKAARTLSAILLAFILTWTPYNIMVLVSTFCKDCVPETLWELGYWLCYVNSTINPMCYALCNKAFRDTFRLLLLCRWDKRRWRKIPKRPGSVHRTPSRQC
The assay can be described thus: mAChR M1 cell-based functional assay (calcium mobilization), agonist activity upon compound addition, Emax relative to acetylcholine maximum. The note with it: for Agonist Activity Human M1 EC50 / EC50: calcium mobilization upon compound addition; for Emax: relative to the maximum for acetylcholine. An outline of the steps:
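CHO-K1 cells stably expressing human M1 were loaded with Fluo-4 AM for 50 min at 37 °C. Compound was added 4 s into a 300 s FDSS read at 1 Hz, over 11-point 1:3 dilution curves. Agonism was taken as a concentration-dependent rise in calcium fluorescence ratio, with Emax expressed relative to the acetylcholine maximum from four-parameter logistic fits.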
In general terms: Calcium assays in cells follow changes in intracellular calcium, usually with a dye or a luminescent sensor.

Assay [2] addresses T1, human mAChRM1. The assay can be described thus: mAChR M1 cell-based functional assay (calcium mobilization), positive allosteric modulator activity: increase in the EC20 acetylcholine response. To be noted: for Emax: PAM mode; for EC50: read-out: PAM Activity Human M1 EC50. An outline of the steps:
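CHO-K1 cells stably expressing human M1, loaded with Fluo-4 AM; calcium flux recorded on FDSS at 1 Hz over 300 s following compound addition. PAM activity is the concentration-dependent increase of an EC20 acetylcholine response; EC50 and Emax from four-parameter logistic fits of 11-point, 1:3 concentration series.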

[3] abbreviates: increase in the EC20 acetylcholine response.

For orientation: Emax means the size of the effect at its maximum, as opposed to the concentration needed. A word on the EC50: it is the concentration at which the effect is half-maximal.

As for `Cc1cc(-c2cc(C(C)(C)O)cc3nn(C)cc23)ccc1CN1Cc2ncccc2C1=O` [Compound 27, 6-(4-(6-(2-hydroxypropan-2-yl)-2-methyl-2H-indazol-4-yl)-2-methylbenzyl)-6,7-dihydro-5H-pyrrolo[3,4-b]pyridin-5-one], the “Agonist Activity Human M1 EC50” value in assay [1] was “inactive”. Besides, the maximal response (Emax) in assay [2] worked out at 83%. In addition, the concentration for a half-maximal effect (EC50) in assay [2] (setting [3]) came to 3280 nM.

Regarding `Cn1cc2c(-c3cc(F)c(CN4Cc5ncccc5C4=O)c(N4CCC4)c3)ccc(C(C)(C)O)c2n1` [Compound 78, 6-(2-(azetidin-1-yl)-6-fluoro-4-(7-(2-hydroxypropan-2-yl)-2-methyl-2H-indazol-4-yl)benzyl)-6,7-dihydro-5H-pyrrolo[3,4-b]pyridin-5-one], the “Agonist Activity Human M1 EC50” value in assay [1] was “inactive”. Further, the Emax in assay [2] came out at 81%. Further, in assay [2] (setting [3]), the EC50 came out at 583 nM.

Consider `Cn1cc2c(-c3cc(F)c(CN4Cc5cccnc5C4=O)c(N4CCC4)c3)ccc(C(C)(C)O)c2n1` [Compound 135, 6-(2-(azetidin-1-yl)-6-fluoro-4-(7-(2-hydroxypropan-2-yl)-2-methyl-2H-indazol-4-yl)benzyl)-5,6-dihydro-7H-pyrrolo[3,4-b]pyridin-7-one], for which the EC50 in assay [1] was ≥ 10 µM; in assay [2] (setting [3]) it was 1030 nM. The Emax in assay [1] is 23%; in assay [2], 80%.

Take `CCC(O)(CC)c1ccc(-c2cc(C)c(CN3Cc4ncccc4C3=O)c(F)c2)c2cn(C)nc12` [Compound 55, 6-(2-fluoro-4-(7-(3-hydroxypentan-3-yl)-2-methyl-2H-indazol-4-yl)-6-methylbenzyl)-6,7-dihydro-5H-pyrrolo[3,4-b]pyridin-5-one]: the “Agonist Activity Human M1 EC50” value in assay [1] was “inactive”. Moreover, the maximal effect (Emax) in assay [2] was determined as 67%. The half-maximal effective concentration (EC50) in assay [2] (setting [3]) was found to be 2720 nM.

Consider `CC(C)(O)c1cc(-c2cc(F)c(CN3Cc4ncccc4C3=O)c(F)c2)cc2c1OCO2` [Compound 17, 6-(2,6-difluoro-4-(7-(2-hydroxypropan-2-yl)benzo[d][1,3]dioxol-5-yl)benzyl)-6,7-dihydro-5H-pyrrolo[3,4-b]pyridin-5-one], for which the “Agonist Activity Human M1 EC50” value in assay [1] was “inactive”. Also, the “PAM Activity Human M1 EC50” value in assay [2] (setting [3]) was “inactive”.

For `CC[C@](C)(O)c1ccc(-c2cc(F)c(CN3Cc4ncccc4C3=O)c(F)c2)c2cn(C)nc12` [Compound 103, (S)-6-(2,6-difluoro-4-(7-(2-hydroxybutan-2-yl)-2-methyl-2H-indazol-4-yl)benzyl)-6,7-dihydro-5H-pyrrolo[3,4-b]pyridin-5-one], the EC50 in assay [1] stood at 4.23 µM; in assay [2] (setting [3]), 254 nM. The Emax in assay [1] turned out to be 11%; in assay [2] it was 87%.

In the case of `CC(C)(O)c1cncc(-c2cc(F)c(CN3Cc4ncccc4C3=O)c(F)c2)c1` [Compound 42, 6-(2,6-difluoro-4-(5-(2-hydroxypropan-2-yl)pyridin-3-yl)benzyl)-6,7-dihydro-5H-pyrrolo[3,4-b]pyridin-5-one], the “Agonist Activity Human M1 EC50” value in assay [1] was “inactive”. Besides, the maximal response (Emax) in assay [2] was 48%. The EC50 in assay [2] (setting [3]) was ≥ 10000 nM.

As to `[2H]C([2H])([2H])n1cc2c(-c3cc(F)c(CN4Cc5ncccc5C4=O)c(F)c3)ccc(C(C)(C)O)c2n1` [Compound 4, 6-(2,6-difluoro-4-(7-(2-hydroxypropan-2-yl)-2-(methyl-d3)-2H-indazol-4-yl)benzyl)-6,7-dihydro-5H-pyrrolo[3,4-b]pyridin-5-one], the half-maximal effective concentration (EC50) amounted to 1.91 µM in assay [1] and 124 nM in assay [2] (setting [3]). The values for the Emax in assay [1] and in assay [2] were 49% and 83%, respectively.

In the case of `C[C@@H](c1c(F)cc(-c2ccc(C(C)(C)O)c3nn(C)cc23)cc1F)N1Cc2ncccc2C1=O` [Compound 98, (S)-6-(1-(2,6-difluoro-4-(7-(2-hydroxypropan-2-yl)-2-methyl-2H-indazol-4-yl)phenyl)ethyl)-6,7-dihydro-5H-pyrrolo[3,4-b]pyridin-5-one], in assay [1], the “Agonist Activity Human M1 EC50” value was “inactive”. Besides, the Emax in assay [2] amounted to 80%. Further, the EC50 in assay [2] (setting [3]) stood at 1120 nM.

For the molecule `Cc1cc(-c2cc(C(C)(C)O)cc3nn[nH]c23)cc(F)c1CN1Cc2ncccc2C1=O` [Compound 74, 6-(2-fluoro-4-(5-(2-hydroxypropan-2-yl)-1H-benzo[d][1,2,3]triazol-7-yl)-6-methylbenzyl)-6,7-dihydro-5H-pyrrolo[3,4-b]pyridin-5-one], the “Agonist Activity Human M1 EC50” value in assay [1] is “inactive”. Moreover, the Emax in assay [2] was 52%. For the same molecule, the concentration for a half-maximal effect (EC50) in assay [2] (setting [3]) was ≥ 10000 nM.

With `Cn1cc2c(-c3cc(F)c(CN4Cc5ncccc5C4=O)c(F)c3)ccc(C(C)(O)C(F)F)c2n1` (centres unmarked) [Compound 100, 6-(4-(7-(1,1-difluoro-2-hydroxypropan-2-yl)-2-methyl-2H-indazol-4-yl)-2,6-difluorobenzyl)-6,7-dihydro-5H-pyrrolo[3,4-b]pyridin-5-one], the “Agonist Activity Human M1 EC50” value in assay [1] is “inactive”. In addition, the Emax in assay [2] was determined as 88%. Besides, in assay [2] (setting [3]), the concentration for a half-maximal effect (EC50) worked out at 211 nM.

For `[2H]C1([2H])c2ncccc2C(=O)N1Cc1cc(F)c(-c2ccc(C(C)(C)O)c3nn(C)cc23)cc1F` [Compound 148, 6-(2,5-difluoro-4-(7-(2-hydroxypropan-2-yl)-2-methyl-2H-indazol-4-yl)benzyl)-6,7-dihydro-5H-pyrrolo[3,4-b]pyridin-5-one-7,7-d2], the EC50 in assay [1] is ≥ 10 µM; in assay [2] (setting [3]), 206 nM. For the same molecule, the Emax in assay [1] came out at 27%; in assay [2], 89%.

For `CC(C)(O)c1ccc(-c2cc(F)c(CN3Cc4ncccc4C3=O)c(Cl)c2)cc1` [Compound 45, 6-((3-chloro-5-fluoro-4′-(2-hydroxypropan-2-yl)-[1,1′-biphenyl]-4-yl)methyl)-6,7-dihydro-5H-pyrrolo[3,4-b]pyridin-5-one], in assay [1], the “Agonist Activity Human M1 EC50” value is “inactive”. Besides, in assay [2], the maximal response (Emax) was 66%. Besides, the EC50 in assay [2] (setting [3]) amounted to 1030 nM.

Take `Cn1cc2cc(-c3cc(F)c(CN4Cc5ncccc5C4=O)c(C4CC4)c3)cc(C(C)(C)O)c2n1` [Compound 88, 6-(2-cyclopropyl-6-fluoro-4-(7-(2-hydroxypropan-2-yl)-2-methyl-2H-indazol-5-yl)benzyl)-6,7-dihydro-5H-pyrrolo[3,4-b]pyridin-5-one]: the concentration for a half-maximal effect (EC50) in assay [1] was ≥ 10 µM; in assay [2] (setting [3]), 398 nM. Moreover, the maximal response (Emax) in assay [1] stood at 21%; in assay [2], 82%.

Regarding `CC[C@@](C)(O)c1ccc(-c2cc(F)c(CN3Cc4ncccc4C3=O)c(F)c2)c2cn(C)nc12` [Compound 102, (R)-6-(2,6-difluoro-4-(7-(2-hydroxybutan-2-yl)-2-methyl-2H-indazol-4-yl)benzyl)-6,7-dihydro-5H-pyrrolo[3,4-b]pyridin-5-one], the “Agonist Activity Human M1 EC50” value in assay [1] was “inactive”. Besides, the maximum response (Emax) in assay [2] came out at 85%. For the same molecule, the EC50 in assay [2] (setting [3]) is 359 nM.

Take `Cc1cc(-c2ccc(C(C)(C)O)c3nn(C)cc23)ccc1CN1Cc2cccnc2C1=O` [Compound 132, 6-(4-(7-(2-hydroxypropan-2-yl)-2-methyl-2H-indazol-4-yl)-2-methylbenzyl)-5,6-dihydro-7H-pyrrolo[3,4-b]pyridin-7-one]: the EC50 in assay [1] was ≥ 10 µM; in assay [2] (setting [3]), 499 nM. The Emax in assay [1] was 14%; in assay [2], 87%.

(Values after patent US20260138978A1, “POSITIVE ALLOSTERIC MODULATORS OF THE MUSCARINIC ACETYLCHOLINE RECEPTOR M1” (Vanderbilt University, priority 2022, published 2026).)
